Measured values taken from PubChem BioAssay (NCI).
“And” between values parts separate entries of the source, which are not always exact repeats. Equal entries are not always repeated.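 Assay format: 96-well plates, 48-hour exposure. GI50 = concentration required for 50% inhibition of growth. TGI marks complete inhibition of growth.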

Legend:
Test in all cases: NCI anticancer screen, dose series, 48 h
[1] = system: A498 renal
[2] = system: CCRF-CEM leukemia
[3] = system: EKVX NSCLC
[4] = system: HL-60(TB) leukemia
[5] = system: MDA-MB-435
[6] = system: NCI-H23 lung
[7] = system: OVCAR-8 ovarian
[8] = system: RPMI-8226 leukemia
[9] = system: RXF 393 renal
[10] = system: SNB-19 CNS

Row | SMILES | GI50 [1] | TGI [1] | GI50 [2] [µM] | TGI [2] | GI50 [3] [µM] | TGI [3] | GI50 [4] | TGI [4] | GI50 [5] | TGI [5] | GI50 [6] | TGI [6] | GI50 [7] | TGI [7] | GI50 [8] | TGI [8] | GI50 [9] | TGI [9] | GI50 [10] | TGI [10]
1 | NCCCn1c2c(c3ccc([N+](=O)[O-])cc3c1=O)C(=O)c1cc(I)ccc1-2 | 3.02 µM | 7.72 µM | < 0.01 | 0.279 µM | 0.79 | 2.32 µM | < 0.0176 µM | 0.0733 µM | 0.223 µM | 1.85 µM | 0.0343 µM | 1.22 µM | 0.0268 µM | 0.234 µM | 0.0218 µM | 0.265 µM | 0.503 µM | 2.28 µM | < 0.01 µM | 1.61 µM
2 | O=C(O)c1ccc(CNCc2ccccc2)cc1 |  | > 100 µM |  | > 100 µM |  | > 100 µM |  | > 100 µM |  | > 100 µM |  | > 100 µM |  | > 100 µM |  | > 100 µM |  | > 100 µM |  | > 100 µM
3 | COc1ccc(/C=C\c2cc(OC)c(OC)c(OC)c2)cc1OCC(=O)O |  | > 83 µM |  | > 100 µM |  | > 100 µM |  | 23.8 µM |  | 3.27 µM |  | 12.5 µM |  | > 58.2 µM |  | > 100 µM |  | 39.2 µM |  | > 45.6 µM
4 | COc1c2occc2c(N)c2ccc(=O)oc12 |  | > 100 µM |  | > 100 µM |  | > 100 µM |  | > 100 µM |  | > 100 µM |  | > 100 µM |  | > 100 µM |  | > 100 µM |  | > 100 µM |  | > 100 µM
5 | COc1ccc(CNc2c3ccccc3nc3ccccc23)cc1F | 1.98 µM | 5.99 µM | 3.81 | 35.6 µM | 3.59 | 14.5 µM | 3.37 µM | 10.4 µM | 2.9 µM |  | 2.74 µM | 12.9 µM | 3.52 µM | 19.4 µM | 2.64 µM | 7.25 µM | 1.8 µM | 4.82 µM | 3.41 µM | 14.7 µM
6 | CNc1cc2oc(=O)cc(C)c2cc1C |  | > 100 µM |  | > 100 µM |  | > 100 µM |  | > 100 µM |  | > 100 µM |  | > 100 µM |  | > 100 µM |  | > 100 µM |  | > 100 µM |  | > 100 µM
7 | NC(=O)c1cc(I)ccc1NC(=O)/C=C/c1ccccc1 | 1.28 µM | 13 µM | 0.36 |  | 0.787 | > 68.8 µM | 0.13 µM | 0.912 µM | 0.192 µM | 0.445 µM | 1 µM | > 44.9 µM | 1.18 µM | 27.8 µM | 0.357 µM | 4.96 µM | 0.989 µM | 22.8 µM | 0.645 µM | 13.7 µM
8 | CN(C)CCN1CCC(Cc2ccccc2)CC1 | 47.2 µM | > 80 µM | > 80 | > 80 µM | > 80 | > 80 µM | 26.8 µM | > 80 µM | > 80 µM | > 80 µM | > 80 µM | > 80 µM | > 80 µM | > 80 µM | > 80 µM | > 80 µM | > 80 µM | > 80 µM | > 80 µM | > 80 µM
9 | CC(C)=CCC1=C(O)c2ccccc2C(=O)C1=O |  | > 100 µM |  | > 100 µM and 18.5 µM | 57.7 | > 100 µM |  | > 100 µM | 21.8 µM | > 100 µM | > 100 µM and 23.5 µM and 33.6 µM | > 100 µM and 69.7 µM | > 100 µM and 26.7 µM and 20.8 µM | > 100 µM |  | > 100 µM | > 100 µM | > 100 µM | > 100 µM and 16.4 µM and 29.4 µM | > 100 µM
10 | CCCCCCn1c(-c2ccc(C(=O)O/N=C(\N)c3ccc4c(c3)OCO4)cc2)nc(-c2ccccc2)c1-c1ccccc1 | 1.01 µM | 3.86 µM | 1.29 | 4.25 µM | 1.76 | 3.96 µM | 1.42 µM | 3.49 µM | 1.77 µM | 3.35 µM | 1.48 µM | 3.05 µM | 2.46 µM | 7.09 µM | 1.94 µM | 5.25 µM | 1.77 µM | 3.88 µM | 3.24 µM | 12.2 µM
11 | Nc1nc(Cl)nc2c1ncn2C1CC(O)C(CO)O1 (stereo not drawn) |  | 48.2 µM |  | 11.5 µM |  | 34.5 µM |  | 1.02 µM | 0.54 µM | > 100 µM |  | 4.78 µM |  | > 100 µM |  | > 100 µM |  | > 100 µM |  | > 100 µM
12 | c1ccc(C2=NOC(c3ccccc3)N2C23CC4CC(CC(C4)C2)C3)cc1 (stereo not drawn) |  | > 10 µM |  | > 10 µM |  | > 10 µM |  | > 10 µM |  | > 10 µM |  | > 10 µM |  | > 10 µM |  | > 10 µM |  | > 10 µM |  | > 10 µM
13 | COc1cc2c3c(n(C)c(=O)c2cc1OC)-c1cc2c(cc1C3=O)OCO2 |  | > 97 µM |  | 22.5 µM |  | > 100 µM |  | > 100 µM |  | > 100 µM |  | 37 µM |  | > 100 µM |  | > 100 µM |  | > 62.4 µM |  | > 100 µM
14 | NNc1ncnc2nc[nH]c12 | 5.41 µM | > 100 µM | 2.97 | > 100 µM | 7.17 | > 100 µM | 3.53 µM | 21.5 µM | 5.57 µM | > 100 µM | 10.1 µM | > 100 µM | 5.09 µM | > 100 µM | 2.09 µM | 17.1 µM | 7.16 µM | > 100 µM | 28.7 µM | > 100 µM
15 | COc1cc2c(cc1OCCCN1CCN(CCCOc3cc4c(cc3OC)C(=O)N3CC(F)(F)C[C@H]3C=N4)CC1)N=C[C@@H]1CC(F)(F)CN1C2=O | 2.43 µM | 5.95 µM | 0.979 | 8.51 µM | 29.1 | > 100 µM | 1.18 µM | 5.06 µM | 2.94 µM | 11.1 µM | 4.55 µM | 16.8 µM | 6.3 µM | 26.7 µM | 2.2 µM | 7.73 µM | 2.14 µM | 4.52 µM | 4.08 µM | 17.5 µM
16 | COC(=O)C1=CN(CC2=CC(=O)C(C)=CC2=O)C=C(C(=O)OC)C1c1ccccc1OC | 31.4 µM | > 87.9 µM | 5.48 | 14.1 µM | 28.8 | > 100 µM | 4.74 µM | 18.5 µM | 21.8 µM | > 53.7 µM | 19.5 µM | 45.6 µM | 17.6 µM | 38.9 µM | 10.3 µM | 40.7 µM | 16.2 µM | 32.3 µM | > 54.9 µM | > 100 µM
17 | CCOc1c(OC)cc(-c2nc3n(n2)C(=O)C(CC)S3)cc1OC (stereo not drawn) |  | > 10 µM |  | > 10 µM |  | > 10 µM |  | > 10 µM |  | > 10 µM |  | > 10 µM |  | > 10 µM |  | > 10 µM |  | > 10 µM |  | > 10 µM
18 | NC(=S)N/N=C/c1ncccc1O | 3.74 µM | 29.2 µM and 32.4 µM | 1.15 | 21.8 µM | 8.58 | > 92.8 µM and 28.1 µM | 1.27 µM and 0.477 µM | 3.6 µM and 3.59 µM | 1.33 µM | > 471 µM | 1.38 µM | 33.4 µM and 29.7 µM | 2.58 µM and 0.813 µM | > 72.2 µM and 135 µM | 5.92 µM and 2.07 µM | > 1000 µM |  | 7.82 µM and 42.6 µM | 3.61 µM | 295 µM
19 | O=[N+]([O-])c1ccccc1N=Nc1c(O)[nH]c2c(Cl)cc(Cl)cc12 |  | > 100 µM |  | > 100 µM |  | 99.5 µM |  | > 93 µM |  | > 100 µM |  | > 100 µM |  | > 100 µM |  | > 100 µM |  | > 59.8 µM |  | > 100 µM
20 | CCCCCCCCSC1=C(Cl)C(=O)C(OC)=C(OC)C1=O |  | 27.9 µM |  | > 100 µM |  | 24.9 µM |  | 16.8 µM |  | 35.4 µM |  | 31.5 µM |  | 30.9 µM |  | > 100 µM |  | 30.3 µM |  | 24.3 µM
21 | CCn1cc(-c2ccnc3[nH]c(-c4cccc(CN(C)C)c4)cc23)c(-c2ccc(NC(=O)N(C)C)cc2)n1 | 0.0673 µM and 0.519 µM | 0.749 µM and 3.28 µM | < 0.01 | 51.6 µM | 3.87 | > 10 µM | 1.46 µM and 0.863 µM | 8.3 µM and > 10 µM | 4.77 µM and > 10 µM | 21.4 µM and > 10 µM | 2.1 µM and 2.45 µM | 17.2 µM and > 10 µM | 3.33 µM and 3.61 µM | 23 µM and > 10 µM | 1.69 µM and 1.32 µM | 15.6 µM and > 10 µM | 0.356 µM and 1.18 µM | 5.54 µM and > 10 µM | 10 µM and > 10 µM | 45 µM and > 10 µM
22 | O=c1[nH]c(-c2cccc(F)c2)cc2cc(F)ccc12 | 0.244 µM | 2.94 µM | 0.369 | > 100 µM | 2.34 | > 100 µM | 0.199 µM | 0.684 µM | 0.0279 µM | 0.0797 µM | 1.61 µM | > 100 µM | 0.951 µM | > 100 µM | 0.355 µM | > 100 µM | 0.358 µM |  | 0.664 µM | > 100 µM
